Assay results as given in patent US20040116293A1, “Enhanced herbicide composition” (priority 2002, published 2004).

How the values were obtained:
Xanthi-nc tobacco [1] = test: Herbicidal activity on Xanthi-nc tobacco at three different light levels; format: in vivo, Nicotiana tabacum (tobacco); details: for Phytotoxicity at 5 days: percent leaf area affected / Phytotoxicity at 9 days: percent leaf area affected / Phytotoxicity at 13 days: percent leaf area affected: atrazine (Aatrex Nine-O) 250 ppm, NaSA 800 ppm
Description: (§1) In all examples, deionized ultra-pure water was used in preparing solutions. Spray solutions were used as soon as possible after mixing.
(§2) In all herbicide applications, plants were sprayed with a sufficient volume to insure good coverage, to the point of runoff of the spray solution. […] For all treatments containing both an herbicide and a salicylate or SAR inducer, these materials were mixed and applied in a single spray solution (commonly known as a tank mix). After spraying, plants were moved to the greenhouse and arranged in randomized complete blocks. Plants were evaluated for herbicidal effects (phytotoxicity) after spraying by assessing damage according to percent leaf area affected. All the data were subject to an analysis of variance, and the mean separations were determined with Duncan's multiple range test at α=0.05.

Xanthi-nc tobacco [2] = test: Herbicidal activity on Xanthi-nc tobacco at three different temperatures; format: in vivo, Nicotiana tabacum (tobacco); details: for Phytotoxicity at 3 days: percent leaf area affected / Phytotoxicity at 5 days: percent leaf area affected / Phytotoxicity at 7 days: percent leaf area affected / Phytotoxicity at 10 days: percent leaf area affected: atrazine (Aatrex Nine-O) 250 ppm, NaSA 800 ppm
Description: as §1, §2

[3] = tested on: corn variety Silver Queen; test: Foliar sprays on corn variety Silver Queen (crop damage)
Description: as §1, §2
Atrazine is commonly used against weeds in corn and small grain crops.

Xanthi-nc tobacco [4] = test: Herbicidal activity (phytotoxicity, percent leaf area affected) of foliar sprays on Xanthi-nc tobacco; format: in vivo, Nicotiana tabacum (tobacco)
Description: as §1, §2

velvetleaf = test: Herbicidal activity (phytotoxicity, percent leaf area affected) of foliar sprays on velvetleaf; format: in vivo, Abutilon theophrasti (velvetleaf); details: for Phytotoxicity at 3 days: percent leaf area affected / Phytotoxicity at 5 days: percent leaf area affected / Phytotoxicity at 7 days: percent leaf area affected: alone or + NaSA 800 ppm
Description: as §1, §2

[5] = illumination 9.8 μmoles·m^−2·s^−1
[6] = illumination 31.3 μmoles·m^−2·s^−1
[7] = atrazine 100 ppm, alone or + NaSA 1600 ppm
[8] = atrazine 250 ppm, alone or + NaSA 1600 ppm
[9] = atrazine 500 ppm, alone or + NaSA 1600 ppm
[10] = atrazine (Aatrex Nine-O) 50 ppm
[11] = atrazine (Aatrex Nine-O) 100 ppm
[12] = atrazine (Aatrex Nine-O) 250 ppm

Structure (SMILES): CCNc1nc(Cl)nc(NC(C)C)n1 [Atrazine, 6-chloro-N-ethyl-N′(1-methylethyl)-1,3,5-triazine-2,4-diamine]
- Phytotoxicity at 5 days: percent leaf area affected (Xanthi-nc tobacco [1]; illumination 0 (Dark)): 0.6 AB percent
- Phytotoxicity at 5 days: percent leaf area affected (Xanthi-nc tobacco [1]; [5]): 0 A percent
- Phytotoxicity at 5 days: percent leaf area affected (Xanthi-nc tobacco [1]; [6]): 1.9 AB percent
- Phytotoxicity at 9 days: percent leaf area affected (Xanthi-nc tobacco [1]; illumination 0 (Dark)): 0.6 A percent
- Phytotoxicity at 9 days: percent leaf area affected (Xanthi-nc tobacco [1]; [5]): 5.3 AB percent
- Phytotoxicity at 9 days: percent leaf area affected (Xanthi-nc tobacco [1]; [6]): 67.2 B percent
- Phytotoxicity at 13 days: percent leaf area affected (Xanthi-nc tobacco [1]; illumination 0 (Dark), crop oil control 35.9): 28.1 A percent
- Phytotoxicity at 13 days: percent leaf area affected (Xanthi-nc tobacco [1]; [5]): 76.5 B percent
- Phytotoxicity at 13 days: percent leaf area affected (Xanthi-nc tobacco [1]; [6]): 100%
- Phytotoxicity at 3 days: percent leaf area affected (Xanthi-nc tobacco [2]; 15 C.): 0 A percent
- Phytotoxicity at 3 days: percent leaf area affected (Xanthi-nc tobacco [2]; 25 C.): 0 A percent
- Phytotoxicity at 3 days: percent leaf area affected (Xanthi-nc tobacco [2]; 35 C.): 11.0 AB percent
- Phytotoxicity at 5 days: percent leaf area affected (Xanthi-nc tobacco [2]; 15 C.): 0 A percent
- Phytotoxicity at 5 days: percent leaf area affected (Xanthi-nc tobacco [2]; 25 C.): 0.6 A percent
- Phytotoxicity at 5 days: percent leaf area affected (Xanthi-nc tobacco [2]; 35 C.): 73.4 C percent
- Phytotoxicity at 7 days: percent leaf area affected (Xanthi-nc tobacco [2]; 15 C.): 5.9 B percent
- Phytotoxicity at 7 days: percent leaf area affected (Xanthi-nc tobacco [2]; 25 C.): 25 C percent
- Phytotoxicity at 7 days: percent leaf area affected (Xanthi-nc tobacco [2]; 35 C.): 97.8 C percent
- Phytotoxicity at 10 days: percent leaf area affected (Xanthi-nc tobacco [2]; 15 C.): 39.1 B percent
- Phytotoxicity at 10 days: percent leaf area affected (Xanthi-nc tobacco [2]; 25 C.): 84.4 B percent
- Phytotoxicity at 10 days: percent leaf area affected (Xanthi-nc tobacco [2]; 35 C.): 100 C percent
- Percent leaf area affected at 3 days ([3]; atrazine (Aatrex Nine-O) 100 ppm, alone or + NaSA 800 ppm): 0 A Percent
- Percent leaf area affected at 3 days ([3]; atrazine (Aatrex Nine-O) 500 ppm, alone or + NaSA 800 ppm): 0 A Percent
- Percent leaf area affected at 3 days ([3]; atrazine (Aatrex Nine-O) 1000 ppm, alone or + NaSA 800 ppm): 0 A Percent
- Phytotoxicity at 2 days: percent leaf area affected (Xanthi-nc tobacco [4]; 2 days, atrazine (Aatrex Nine-O) 100 ppm, NaSA 800 ppm, acibenzolar-S-methyl 187 ppm, alone or tank-mixed as labelled): 1 A percent
- Phytotoxicity at 3 days: percent leaf area affected (Xanthi-nc tobacco [4]; atrazine (Aatrex Nine-O) 100 ppm, NaSA 800 ppm, acibenzolar-S-methyl 187 ppm, alone or tank-mixed as labelled): 17 B percent
- Phytotoxicity at 7 days: percent leaf area affected (Xanthi-nc tobacco [4]; 7 days, atrazine (Aatrex Nine-O) 100 ppm, NaSA 800 ppm, acibenzolar-S-methyl 187 ppm, alone or tank-mixed as labelled): 93.9 B percent
- Phytotoxicity at 3 days: percent leaf area affected (Xanthi-nc tobacco [4]; [7]): 1.5 A percent
- Phytotoxicity at 6 days: percent leaf area affected (Xanthi-nc tobacco [4]; [7]): 66.2 C percent
- Phytotoxicity at 3 days: percent leaf area affected (Xanthi-nc tobacco [4]; [8]): 4.3 AB percent
- Phytotoxicity at 6 days: percent leaf area affected (Xanthi-nc tobacco [4]; [8]): 77.5 D percent
- Phytotoxicity at 3 days: percent leaf area affected (Xanthi-nc tobacco [4]; [9]): 9.5 B percent
- Phytotoxicity at 6 days: percent leaf area affected (Xanthi-nc tobacco [4]; [9]): 82.5 DE percent
- Phytotoxicity at 3 days: percent leaf area affected (velvetleaf; [10]): 17.5 B percent
- Phytotoxicity at 5 days: percent leaf area affected (velvetleaf; [10]): 20 B percent
- Phytotoxicity at 7 days: percent leaf area affected (velvetleaf; [10]): 25 B percent
- Phytotoxicity at 3 days: percent leaf area affected (velvetleaf; [11]): 35 C percent
- Phytotoxicity at 5 days: percent leaf area affected (velvetleaf; [11]): 50 D percent
- Phytotoxicity at 7 days: percent leaf area affected (velvetleaf; [11]): 45 C percent
- Phytotoxicity at 3 days: percent leaf area affected (velvetleaf; [12]): 80 E percent
- Phytotoxicity at 5 days: percent leaf area affected (velvetleaf; [12]): 97.5 EF percent
- Phytotoxicity at 7 days: percent leaf area affected (velvetleaf; [12]): 95 D percent

Structure (SMILES): O=C([O-])c1ccccc1O.[Na+] [NaSA, sodium salicylate]
- Effect of added salicylate on atrazine herbicidal activity (in words) (Xanthi-nc tobacco [1]; darkness): conferred some activity in darkness
- Effect of added salicylate on atrazine herbicidal activity (in words) (Xanthi-nc tobacco [1]; low light): potentiated atrazine herbicidal activity under low light
- Effect of salicylate on atrazine herbicidal activity (in words) (Xanthi-nc tobacco [2]; range of temperatures (15-35 C)): potentiated atrazine herbicidal activity under a range of temperatures
- Percent leaf area affected at 3 days ([3]; NaSA 800 ppm alone): 0 A Percent
- Effect of salicylate on Basagran (bentazon) herbicidal activity (in words) (Xanthi-nc tobacco [4]; tobacco): potentiates Basagran®
- Effect of added salicylate on atrazine herbicidal activity (in words) (Xanthi-nc tobacco [4]; tobacco, apparent 3 days after application, persisted through 6 days): increased atrazine herbicidal activity
- Effect of salicylate on Aatrex Nine-O herbicidal activity (in words) (velvetleaf; velvetleaf): potentiates Aatrex Nine-O®
